Test results: patent US20250195602A1, “Compositions and Methods for Treating Neuropathy” (Creative Bio-Peptides, Inc., priority 2021, published 2025)
Where two headings read alike, the source gives them in different places.

Legend:
[1] = Pharmacokinetics of RAP-103 in non-human primates (plasma levels, bioavailability); format: in vivo, Rhesus macaques; Macaca mulatta; settings: for bioavailability: rhesus monkey, in vivo
Procedure: In non-human primates (rhesus monkeys) RAP-103 was dosed once on Day 1 by intravenous bolus injection at 1 mg/kg and plasma levels determined. […] Drug in plasma after a single IV dose (1 mg/Kg) was still measurable at anticipated therapeutic levels 96 hrs. post-dose in non-human primates as shown in FIG. 2B.

[2] = Pharmacokinetics and brain entry of RAP-103 in guinea pigs (oral gavage and IV); format: in vivo
[3] = Clinical observations and body weights over seven days after RAP-103 dosing (acute toxicity); format: in vivo, Rhesus macaques; Macaca mulatta
[4] = Pharmacokinetics and brain entry of RAP-103 in rats (oral gavage and IV); format: in vivo
[5] = test system: chemotherapy induced peripheral neuropathy (CIPN) caused by paclitaxel
Procedure: Morphine was used as a positive control for pain response.
The ability of RAP-103 was tested to treat chemotherapy induced peripheral neuropathy (CIPN) caused by paclitaxel in rodents. This assay uses the chemotherapeutic agent paclitaxel to elicit a chronic pain state. Once established, pain in these animals can persist for weeks.
Rats were given i.p. injections of paclitaxel (2 mg/kg) on days 0, 2, 4, and 6 to induce a chronic pain state. […] On day 21 morphine (2 mg/Kg) was also administered to animals as a positive control. Pain was assessed 60 minutes after morphine or RAP-103 administration on the left rear paw on day 21 with a series of von Frey filaments with logarithmically incrementing stiffness applied perpendicular to the midplantar region of the hind paw. The paw withdrawal force (grams, g) threshold was determined.

[6] = IV or oral gavage dosing, FIG. 2A

## C[C@H](O)[C@@H](N)C(=O)N[C@@H](C(=O)N[C@H](CC(N)=O)C(=O)N[C@H](Cc1ccc(O)cc1)C(=O)N[C@@H](C(=O)O)[C@H](C)O)[C@H](C)O [RAP-103, All D-peptide-Thr-Thr-Asn-Tyr-Thr]
[1]; non-human primates (Rhesus macaque), oral and IV dosing
  Brain entry: quickly entered the brain
[1]; non-human primates, single IV dose 1 mg/Kg, FIG. 2B
  Time post-dose at which drug in plasma was still measurable at anticipated therapeutic levels: ≥ 96 h
[1]; 1 mg/kg, female rhesus monkeys, 1 mg/kg dose level, read-out: Absolute bioavailability
  bioavailability: 88%
[1]; po, 1 mg/kg, male rhesus monkeys, 1 mg/kg dose level, read-out: Absolute bioavailability
  bioavailability: 89%
[1]; po, 1 mg/kg, non-human primates, read-out: Oral bioavailability
  bioavailability: 88%
[1]; rhesus monkeys, 1 mg/kg
  AUC 0-T, male versus female monkeys: comparable
  Cmax, male versus female monkeys: comparable
[2]
  Brain level compared to plasma levels: preferentially enters the brain
[2]; FIG. 2A
  Brain entry by oral compared to IV dosing: preferentially entered the brain by oral
[2]; [6]
  Brain entry: quickly entered the brain
  Persistence at therapeutic levels in brain: at least 24 hrs
[3]
  Acute toxicity: no acute toxicity
  RAP-103-related changes in body weights: no RAP-103-related changes
  RAP-103-related changes in clinical observations: no RAP-103-related changes
[4]
  Brain level compared to plasma levels: preferentially enters the brain
[4]; FIG. 2A
  Brain entry by oral compared to IV dosing: preferentially entered the brain by oral
[4]; [6]
  Brain entry: quickly entered the brain
  Persistence at therapeutic levels in brain: at least 24 hrs
[5]; animal model of CIPN, RAP-103 0.05 mg/kg vs morphine 2 mg/Kg
  Treatment of paclitaxel induced CIPN compared with standard of care (morphine): at least equivalent
[5]; animal model of paclitaxel induced CIPN
  Dose lower on a weight basis than morphine at at least equivalent effect: about 40 fold
[5]; rats treated with paclitaxel, FIG. 4
  Paw withdraw threshold compared to vehicle: increased paw withdraw threshold
[5]; rats, 0.05 mg/kg daily i.p. days 17-21 post paclitaxel, assessed 60 minutes after dosing on day 21, FIG. 4
  Effect on chronic pain caused by repeated administration of paclitaxel: reduced chronic pain
